Source: ChEMBL document CHEMBL1201861, “Genomics of Drug Sensitity in Cancer screening data, Wellcome Trust Sanger Institute”

Key:
Test in all cases: cells
Conditions in all cases: Homo sapiens
[1] = tested on: COLO-800; format: functional, cell-based;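 further: growth inhibition of COLO-800 cells, read out with a cell viability assay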
Description: SANGER: Inhibition of human COLO-800 cell growth in a cell viability assay.

[2] = tested on: COR-L88; format: functional, cell-based;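 further: growth inhibition of COR-L88 cells, read out with a cell viability assay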
Description: SANGER: Inhibition of human COR-L88 cell growth in a cell viability assay.

[3] = tested on: Calu-6; format: functional, cell-based;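 further: growth of human Calu-6 cells, read out by a cell viability assay, IC50 marking inhibition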
Description: SANGER: Inhibition of human Calu-6 cell growth in a cell viability assay.

[4] = tested on: DMS-114; format: functional, cell-based
[5] = tested on: ES1; format: functional, cell-based;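 further: growth inhibition of ES1 cells, read out with a cell viability assay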
Description: SANGER: Inhibition of human ES1 cell growth in a cell viability assay.

[6] = tested on: ES3; format: functional, cell-based;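 further: growth inhibition of ES3 cells, read out with a cell viability assay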
Description: SANGER: Inhibition of human ES3 cell growth in a cell viability assay.

[7] = tested on: ES8; format: functional, cell-based;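 further: growth inhibition of human ES8 cells, read out with a cell viability assay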
Description: SANGER: Inhibition of human ES8 cell growth in a cell viability assay.

[8] = tested on: EW-1; format: functional, cell-based;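 further: growth inhibition of the human EW-1 cell line, read out by a cell viability assay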
Description: SANGER: Inhibition of human EW-1 cell growth in a cell viability assay.

[9] = tested on: EW-18; format: functional, cell-based;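 further: growth inhibition of EW-18 cells, read out by a cell viability assay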
Description: SANGER: Inhibition of human EW-18 cell growth in a cell viability assay.

[10] = tested on: EW-24; format: functional, cell-based;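 further: human EW-24 cancer cell line, growth inhibition read out via a cell viability assay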
Description: SANGER: Inhibition of human EW-24 cell growth in a cell viability assay.

[11] = tested on: EW-3; format: functional, cell-based;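 further: cell viability assay read-out, IC50 reflects inhibition of growth of the EW-3 cells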
Description: SANGER: Inhibition of human EW-3 cell growth in a cell viability assay.

[12] = tested on: EOL1; format: functional, cell-based;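 further: growth inhibition of EoL-1 cells, read out by a cell viability assay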
Description: SANGER: Inhibition of human EoL-1-cell cell growth in a cell viability assay.

[13] = tested on: GB-1; format: functional, cell-based;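 further: growth of GB-1 cells judged by a viability assay, IC50 marks the concentration inhibiting growth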
Description: SANGER: Inhibition of human GB-1 cell growth in a cell viability assay.

[14] = tested on: GCIY; format: functional, cell-based;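 further: growth inhibition of the human GCIY cell line, read out by a cell viability assay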
Description: SANGER: Inhibition of human GCIY cell growth in a cell viability assay.

[15] = tested on: GOTO; format: functional, cell-based;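 further: growth inhibition of GOTO cells, read out by a cell viability assay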
Description: SANGER: Inhibition of human GOTO cell growth in a cell viability assay.

[16] = tested on: HCE-4; format: functional, cell-based;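 further: cell viability assay measuring inhibition of growth in the human HCE-4 cell line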
Description: SANGER: Inhibition of human HCE-4 cell growth in a cell viability assay.

[17] = tested on: HT-144; format: functional, cell-based
Description: SANGER: Inhibition of human HT-144 cell growth in a cell viability assay.

[18] = tested on: HuTu80; format: functional, cell-based, HUTU-80;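 further: growth inhibition of HuTu80 human cells, determined with a cell viability readout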
Description: SANGER: Inhibition of human HUTU-80 cell growth in a cell viability assay.

[19] = tested on: IA-LM; format: functional, cell-based;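 further: cell viability assay measuring growth inhibition of human IA-LM cells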
Description: SANGER: Inhibition of human IA-LM cell growth in a cell viability assay.

[20] = tested on: IST-MEL1; format: functional, cell-based;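 further: growth inhibition of the cell line, read out with a cell viability assay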
Description: SANGER: Inhibition of human IST-MEL1 cell growth in a cell viability assay.

[21] = tested on: IST-SL1; format: functional, cell-based;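 further: growth inhibition of human IST-SL1 cells, read out with a cell viability assay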
Description: SANGER: Inhibition of human IST-SL1 cell growth in a cell viability assay.

[22] = tested on: JAR; format: functional, cell-based;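 further: growth inhibition of human JAR cells determined with a cell viability assay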
Description: SANGER: Inhibition of human JAR cell growth in a cell viability assay.

[23] = tested on: K5; format: functional, cell-based
Description: SANGER: Inhibition of human K5 cell growth in a cell viability assay.

[24] = tested on: KGN; format: functional, cell-based;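 further: growth inhibition of KGN cells, read out with a cell viability assay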
Description: SANGER: Inhibition of human KGN cell growth in a cell viability assay.

[25] = tested on: KM12; format: functional, cell-based;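 further: KM12 cell growth inhibition, read out with a cell viability assay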
Description: SANGER: Inhibition of human KM12 cell growth in a cell viability assay.

[26] = tested on: KMOE-2; format: functional, cell-based;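 further: growth inhibition of human KMOE-2 cells, read out with a cell viability assay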
Description: SANGER: Inhibition of human KMOE-2 cell growth in a cell viability assay.

[27] = tested on: KY821; format: functional, cell-based;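 further: growth inhibition of human KY821 cells, read out by a cell viability assay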
Description: SANGER: Inhibition of human KY821 cell growth in a cell viability assay.

[28] = tested on: LB2241-RCC; format: functional, cell-based;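 further: cell viability assay measuring how strongly the cultured human renal carcinoma line is prevented from growing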
Description: SANGER: Inhibition of human LB2241-RCC cell growth in a cell viability assay.

[29] = tested on: LB771-HNC; format: functional, cell-based;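 further: growth inhibition of LB771-HNC human cells, read out with a cell viability assay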
Description: SANGER: Inhibition of human LB771-HNC cell growth in a cell viability assay.

[30] = tested on: LB831-BLC; format: functional, cell-based;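 further: growth inhibition of LB831-BLC cells, read out with a cell viability assay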
Description: SANGER: Inhibition of human LB831-BLC cell growth in a cell viability assay.

[31] = tested on: LNCaP-Clone-FGC; format: functional, cell-based
Description: SANGER: Inhibition of human LNCaP-Clone-FGC cell growth in a cell viability assay.

[32] = tested on: LS-123; format: functional, cell-based
Description: SANGER: Inhibition of human LS-123 cell growth in a cell viability assay.

[33] = tested on: LS-513; format: functional, cell-based
Description: SANGER: Inhibition of human LS-513 cell growth in a cell viability assay.

[34] = tested on: MZ7-mel; format: functional, cell-based;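 further: growth inhibition of human MZ7-mel cells, measured by a cell viability assay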
Description: SANGER: Inhibition of human MZ7-mel cell growth in a cell viability assay.

[35] = tested on: NB6; format: functional, cell-based;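 further: growth inhibition of NB6 cells, read out by a cell viability assay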
Description: SANGER: Inhibition of human NB6 cell growth in a cell viability assay.

[36] = tested on: NCI-H1155; format: functional, cell-based;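 further: cell growth inhibition measured by a viability assay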
Description: SANGER: Inhibition of human NCI-H1155 cell growth in a cell viability assay.

[37] = tested on: NCI-H209; format: functional, cell-based;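 further: growth inhibition of human NCI-H209 cells, measured by a cell viability assay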
Description: SANGER: Inhibition of human NCI-H209 cell growth in a cell viability assay.

[38] = tested on: NCI-H446; format: functional, cell-based;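 further: growth inhibition of NCI-H446 cells determined by a cell viability assay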
Description: SANGER: Inhibition of human NCI-H446 cell growth in a cell viability assay.

[39] = tested on: NCI-H69; format: functional, cell-based;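 further: growth inhibition of the cell line, read out with a cell viability assay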
Description: SANGER: Inhibition of human NCI-H69 cell growth in a cell viability assay.

[40] = tested on: SNU-5; format: functional, cell-based;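 further: cell viability readout used to measure growth inhibition in human NCI-SNU-5 cells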
Description: SANGER: Inhibition of human NCI-SNU-5 cell growth in a cell viability assay.

[41] = tested on: OCI-AML2; format: functional, cell-based;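 further: growth inhibition of OCI-AML2 cells, read out with a cell viability assay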
Description: SANGER: Inhibition of human OCI-AML2 cell growth in a cell viability assay.

[42] = tested on: OS-RC-2; format: functional, cell-based;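 further: growth inhibition of human OS-RC-2 cells, measured by a cell viability assay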
Description: SANGER: Inhibition of human OS-RC-2 cell growth in a cell viability assay.

[43] = tested on: P30-OHK; format: functional, cell-based;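 further: growth inhibition of the P30-OHK cell line, read out with a cell viability assay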
Description: SANGER: Inhibition of human P30-OHK cell growth in a cell viability assay.

[44] = tested on: QIMR-WIL; format: functional, cell-based;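 further: growth inhibition of QIMR-WIL cells, read out with a cell viability assay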
Description: SANGER: Inhibition of human QIMR-WIL cell growth in a cell viability assay.

[45] = tested on: RKO; format: functional, cell-based;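 further: growth inhibition of human RKO cells, read out with a cell viability assay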
Description: SANGER: Inhibition of human RKO cell growth in a cell viability assay.

[46] = tested on: RXF 393; format: functional, cell-based;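 further: growth inhibition of human RXF 393 cells, read out with a cell viability assay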
Description: SANGER: Inhibition of human RXF393 cell growth in a cell viability assay.

[47] = tested on: SBC-1; format: functional, cell-based;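 further: cell viability assay measuring growth inhibition of the SBC-1 cell line, IC50 being the concentration that halves growth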
Description: SANGER: Inhibition of human SBC-1 cell growth in a cell viability assay.

[48] = tested on: SHP77; format: functional, cell-based, SHP-77;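 further: growth inhibition of human SHP-77 cells measured by a cell viability assay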
Description: SANGER: Inhibition of human SHP-77 cell growth in a cell viability assay.

[49] = tested on: SJSA-1; format: functional, cell-based;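 further: growth inhibition of human SJSA-1 cells, read out through a cell viability measurement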
Description: SANGER: Inhibition of human SJSA-1 cell growth in a cell viability assay.

[50] = tested on: SK-MEL-2; format: functional, cell-based;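 further: growth inhibition of human SK-MEL-2 cells measured with a cell viability assay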
Description: SANGER: Inhibition of human SK-MEL-2 cell growth in a cell viability assay.

[51] = tested on: SK-N-FI; format: functional, cell-based;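 further: cell viability assay measuring growth inhibition of human SK-N-FI cells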
Description: SANGER: Inhibition of human SK-N-FI cell growth in a cell viability assay.

[52] = tested on: SK-PN-DW; format: functional, cell-based;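 further: growth inhibition measured with a viability assay on these cells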
Description: SANGER: Inhibition of human SK-PN-DW cell growth in a cell viability assay.

[53] = tested on: SNU-C2B; format: functional, cell-based
Description: SANGER: Inhibition of human SNU-C2B cell growth in a cell viability assay.

[54] = tested on: SW872; format: functional, cell-based
Description: SANGER: Inhibition of human SW872 cell growth in a cell viability assay.

[55] = tested on: A101D; format: functional, cell-based
Description: SANGER: Inhibition of human A101D cell growth in a cell viability assay.

[56] = tested on: A3-KAW; format: functional, cell-based
Description: SANGER: Inhibition of human A3-KAW cell growth in a cell viability assay.

[57] = tested on: A388; format: functional, cell-based
Description: SANGER: Inhibition of human A388 cell growth in a cell viability assay.

[58] = tested on: A704; format: functional, cell-based
Description: SANGER: Inhibition of human A704 cell growth in a cell viability assay.

[59] = tested on: ACN; format: functional, cell-based
Description: SANGER: Inhibition of human ACN cell growth in a cell viability assay.

[60] = tested on: BB30-HNC; format: functional, cell-based
Description: SANGER: Inhibition of human BB30-HNC cell growth in a cell viability assay.

[61] = tested on: BE-13; format: functional, cell-based
Description: SANGER: Inhibition of human BE-13 cell growth in a cell viability assay.

[62] = tested on: C8166; format: functional, cell-based
Description: SANGER: Inhibition of human C8166 cell growth in a cell viability assay.

[63] = tested on: TE-10; format: functional, cell-based
Description: SANGER: Inhibition of human TE-10 cell growth in a cell viability assay.

[64] = tested on: TE-6; format: functional, cell-based
Description: SANGER: Inhibition of human TE-6 cell growth in a cell viability assay.

[65] = tested on: CCRF-CEM; format: functional, cell-based
Description: SANGER: Inhibition of human CCRF-CEM cell growth in a cell viability assay.

[66] = tested on: COLO-668; format: functional, cell-based
Description: SANGER: Inhibition of human COLO-668 cell growth in a cell viability assay.

C/C=C(/C)C(=O)O[C@H]1C(C)=C2[C@H]([C@@H]1OC(=O)CCCCCCC)[C@@](C)(OC(C)=O)C[C@H](OC(=O)CCC)[C@@]1(O)[C@H]2OC(=O)[C@@]1(C)O [THAPSIGARGIN] gave an IC50 [1] of 51.3 nM, an IC50 [2] of 266 nM and an IC50 [3] of 4.79 nM. The IC50 [4] was greater than 512 nM, the IC50 [5] was less than 2 nM and the IC50 [6] was 4.1 nM. For the same molecule, the IC50 [7] was 18.1 nM, the IC50 [8] was 3.88 nM and the IC50 [9] was 2.11 nM. The IC50 [10] was 149 nM, the IC50 [11] was 118 nM and the IC50 [12] was 24.2 nM. It also gave an IC50 [13] of 114 nM, an IC50 [14] of 53.5 nM and an IC50 [15] of 50.5 nM. For the same molecule, the IC50 [16] was 4.25 nM, the IC50 [17] was 0.518 nM and the IC50 [18] was 0.657 nM. The IC50 [19] was 2.39 nM, the IC50 [20] was 0.788 nM and the IC50 [21] was 24.2 nM. For the same molecule, the IC50 [22] was greater than 512 nM, the IC50 [23] was greater than 512 nM and the IC50 [24] was less than 2 nM. The IC50 [25] was 13.4 nM, the IC50 [26] was 82.9 nM and the IC50 [27] was 0.636 nM. It also gave an IC50 [28] of 66 nM, an IC50 [29] of 64.1 nM and an IC50 [30] of 3.94 nM. The IC50 [31] was 32.2 nM, the IC50 [32] was 6.23 nM and the IC50 [33] was 154 nM. For the same molecule, the IC50 [34] was 107 nM, the IC50 [35] was 4.58 nM and the IC50 [36] was 285 nM. For the same molecule, the IC50 [37] was 18.1 nM, the IC50 [38] was 35.4 nM and the IC50 [39] was 56.7 nM. For the same molecule, the IC50 [40] was 91.4 nM, the IC50 [41] was 8.04 nM and the IC50 [42] was 24.3 nM. It also gave an IC50 [43] of 2.08 nM, an IC50 [44] greater than 512 nM and an IC50 [45] of 1.61 nM. For the same molecule, the IC50 [46] was greater than 512 nM, the IC50 [47] was 48 nM and the IC50 [48] was 59.1 nM. For the same molecule, the IC50 [49] was 3 nM, the IC50 [50] was less than 2 nM and the IC50 [51] was 88.2 nM. It also gave an IC50 [52] of less than 2 nM, an IC50 [53] of 12.4 nM and an IC50 [54] of 5.78 nM. The IC50 [55] was 4.82 nM, the IC50 [56] was 1.98 nM and the IC50 [57] was 1.39 nM. The IC50 [58] was 247 nM, the IC50 [59] was 4.69 nM and the IC50 [60] was 0.984 nM. For the same molecule, the IC50 [61] was 7.35 nM, the IC50 [62] was 188 nM and the IC50 [63] was 1.57 nM. It also gave an IC50 [64] of 17.8 nM, an IC50 [65] of 30.9 nM and an IC50 [66] of 19.7 nM.
